Results as given in ChEMBL document CHEMBL4190400, “Identification of Potent Ebola Virus Entry Inhibitors with Suitable Properties for in Vivo Studies” (J Med Chem, 2018).
In brackets after ≈: the same amount, converted by molar mass.

How the values were obtained:
[1] = Half life in mouse liver microsomes at 1 uM after 60 mins in presence of NADPH by LC-MS/MS analysis; assay type: ADME, microsome
[2] = Half life in human liver microsomes at 1 uM after 60 mins in presence of NADPH by LC-MS/MS analysis; assay type: ADME, microsome
Ebolavirus [3] = assay: Antiviral activity against VSV pseudotyped Ebolavirus expressing M-GFP infected in African green monkey Vero E6 cells assessed as inhibition of viral infection pre-incubated for 2 hrs before infection and measured after 8 to 12 hrs by fluorescence microscopic method; assay type: functional, Vero C1008
Ebolavirus [4] = assay: Antiviral activity against recombinant VSV pseudotyped Ebolavirus expressing M-GFP infected in African green monkey Vero E6 cells assessed as inhibition of viral infection pre-incubated for 2 hrs before infection and measured after 8 to 12 hrs in presence of 50% NHS by fluorescence microscopic method; assay type: functional, Vero C1008
Ebolavirus [5] = assay: Antiviral activity against Ebolavirus isolate Makona infected in human HeLa cells assessed as inhibition of viral infection pretreated for 2 hrs before viral infection and measured after 48 hrs by EboV GP immunostaining based method; assay type: functional, cell-based; conditions: Orthoebolavirus
physchem = conditions: phosphate buffered saline, pH 7.4
Ebolavirus [6] = assay: Antiviral activity against Ebola virus - Mayinga, Zaire, 1976 infected in human HeLa cells assessed as inhibition of viral infection pretreated for 2 hrs before viral infection and measured after 48 hrs by EboV GP immunostaining based method; assay type: functional, cell-based; conditions: Orthoebolavirus
Ebolavirus [7] = assay: Antiviral activity against Ebolavirus isolate Kikwit infected in human HeLa cells assessed as inhibition of viral infection pretreated for 2 hrs before viral infection and measured after 48 hrs by EboV GP immunostaining based method; assay type: functional, cell-based; conditions: Orthoebolavirus
[8] = Stability of the compound in mouse plasma at 10 uM assessed as compound remaining after 4 hrs by LC-MS/MS analysis; assay type: ADME, cell-free; conditions: read-out: Stability
in vitro = conditions: mouse, plasma
[9] = Half life in mouse liver microsomes at 1 uM after 60 mins in presence of NADPH and ritonavir by LC-MS/MS analysis; assay type: ADME, microsome; conditions: with ritonavir (concentration not stated)
[10] = Concentration in mouse plasma at 25 mg/kg, po administered via gavage after 12 hrs; assay type: ADME, organism-based
[11] = Clearance in mouse at 25 mg/kg, po administered via gavage; assay type: ADME, organism-based; conditions: in vivo
[12] = Cmax in mouse at 25 mg/kg, po administered via gavage cotreated with 20 mg/kg ritonavir; assay type: ADME, organism-based; set-up: dose 25 mg/kg, route oral; conditions: in vivo
[13] = Concentration in mouse plasma at 25 mg/kg, po administered via gavage cotreated with 20 mg/kg ritonavir; assay type: ADME, organism-based; conditions: in vivo
[14] = AUClast in mouse at 25 mg/kg, po administered via gavage cotreated with 20 mg/kg ritonavir; assay type: ADME, organism-based; set-up: dose 25 mg/kg, route oral, time 0 - last; conditions: in vivo
[15] = Clearance in mouse at 25 mg/kg, po administered via gavage cotreated with 20 mg/kg ritonavir; assay type: ADME, organism-based; conditions: in vivo
in vivo = conditions: mouse, po, 25 mg/kg
[16] = Tmax in mouse at 50 mg/kg, po administered via gavage cotreated with 50 mg/kg ritonavir; assay type: ADME, organism-based; conditions: in vivo
[17] = Cmax in mouse at 50 mg/kg, po administered via gavage cotreated with 50 mg/kg ritonavir; assay type: ADME, organism-based; set-up: dose 50 mg/kg, route oral; conditions: in vivo
[18] = Concentration in mouse plasma at 50 mg/kg, po administered via gavage cotreated with 50 mg/kg ritonavir; assay type: ADME, organism-based; conditions: in vivo
[19] = AUClast in mouse at 50 mg/kg, po administered via gavage cotreated with 50 mg/kg ritonavir; assay type: ADME, organism-based; set-up: dose 50 mg/kg, route oral, time 0 - last; conditions: in vivo
[20] = Half life in mouse at 50 mg/kg, po administered via gavage cotreated with 50 mg/kg ritonavir; assay type: ADME, organism-based; conditions: in vivo
[21] = Clearance in mouse at 50 mg/kg, po administered via gavage cotreated with 50 mg/kg ritonavir; assay type: ADME, organism-based; conditions: in vivo
Ebolavirus [22] = assay: Antiviral activity against VSV pseudotyped Ebolavirus expressing M-GFP infected in African green monkey Vero E6 cells assessed as inhibition of viral infection pre-incubated for 2 hrs before infection and measured after 8 to 12 hrs in presence of 10% FBS and 50% NHS by fluorescence microscopic method; assay type: functional; conditions: Orthoebolavirus, Vero C1008

## COC(=O)c1ccc(COc2ccccc2CN2CCN(C(=O)CNC(=O)CC34CC5CC(CC(C5)C3)C4)CC2)cc1
[1]
  half-life at 1 µM: 1 min
[2]
  half-life at 1 µM: 0.02 h
Ebolavirus [3]; Orthoebolavirus, Vero C1008
  IC50: 0.013 µM
Ebolavirus [4]; Orthoebolavirus, Vero C1008
  IC50: 0.064 µM
Ebolavirus [5]
  EC50: 0.16 µM
physchem
  solubility kinetic: 5.3 µM (≈ 3.04 µg/mL)

## O=C(CC12CC3(F)CC(F)(CC(F)(C3)C1)C2)NCC(=O)N1CCN(Cc2ccccc2OCc2ccc(Br)cc2)CC1
[1]
  half-life at 1 µM: 1 min
Ebolavirus [3]; Orthoebolavirus, Vero C1008
  IC50: 0.2 µM

## CS(=O)(=O)c1ccc(CNc2ccc(Cl)cc2CN2CCN(C(=O)CNC(=O)CC3CCC(F)(F)CC3)CC2)cc1
Ebolavirus [6]
  EC50: 0.012 µM
Ebolavirus [4]; Orthoebolavirus, Vero C1008
  IC50: 0.028 µM
Ebolavirus [5]
  EC50: 0.052 µM
Ebolavirus [7]
  EC50: 0.033 µM

## O=C(CC12CC3CC(CC(C3)C1)C2)NCC(=O)N1CCN(Cc2ccccc2OCc2ccc(-c3ncco3)cc2)CC1
[8]
  remaining at 4 h, 10 µM: 37%
[1]
  half-life at 1 µM: 1 min
Ebolavirus [3]; Orthoebolavirus, Vero C1008
  IC50: 0.27 µM
physchem
  solubility kinetic: 5 µM (≈ 2.91 µg/mL)
In vitro
  fraction unbound at 6 h: 0.003

## Nc1ccc(Cl)cc1CN1CCN(C(=O)CNC(=O)CC2CCC(F)(F)CC2)CC1
[8]
  remaining at 4 h, 10 µM: 94%
Ebolavirus [3]; Orthoebolavirus, Vero C1008
  IC50: 0.34 µM
physchem
  solubility kinetic: > 100 µM
In vitro
  fraction unbound at 6 h: 0.131

## [2H]C([2H])(c1cc(Cl)ccc1N)N1CCN(C(=O)CNC(=O)CC2CCC(F)(F)CC2)CC1
[8]
  remaining at 4 h, 10 µM: 86%
[9]
  half-life at 1 µM: > 2 h
[10]
  concentration at 12 h: 0.2 µM
[11]
  CL/F: 49 mL/min/kg
[12]
  Cmax: 12 µM
[13]
  concentration: 1.7 µM
[14]
  AUC(0-t): 76.8 µM·h
[15]
  CL/F: 12.3 mL/min/kg
Ebolavirus [3]; Orthoebolavirus, Vero C1008
  IC50: 0.347 µM
Ebolavirus [4]; Orthoebolavirus, Vero C1008
  IC50: 1.2 µM
In vivo
  half-life: 2.3 h

## CS(=O)(=O)c1ccc(COc2ccc(Cl)cc2CN2CCN(C(=O)CNC(=O)CC3CCC(F)(F)CC3)CC2)cc1
[8]
  remaining at 4 h, 10 µM: 30%
[9]
  half-life at 1 µM: > 2 h
Ebolavirus [4]; Orthoebolavirus, Vero C1008
  IC50: 0.038 µM

## CS(=O)(=O)c1ccc(CNc2ccc(Cl)cc2CN2CCN(C(=O)CNC(=O)C3CC34CCC(F)(F)CC4)CC2)cc1 (racemic)
Ebolavirus [6]
  EC50: 0.009 µM
Ebolavirus [4]; Orthoebolavirus, Vero C1008
  IC50: 0.04 µM
Ebolavirus [5]
  EC50: 0.017 µM
Ebolavirus [7]
  EC50: 0.035 µM

## CCC1(CC)CC1C(=O)NCC(=O)N1CCN(Cc2cc(Cl)ccc2N)CC1 (racemic)
Ebolavirus [3]; Orthoebolavirus, Vero C1008
  IC50: 0.16 µM

## CS(=O)(=O)c1ccc(COc2ccc(Cl)cc2CN2CCN(C(=O)CNC(=O)C3CC34CCC(F)(F)CC4)CC2)cc1 (racemic)
Ebolavirus [6]
  EC50: 0.21 µM
Ebolavirus [4]; Orthoebolavirus, Vero C1008
  IC50: 0.035 µM
Ebolavirus [5]
  EC50: 0.14 µM
Ebolavirus [7]
  EC50: 0.42 µM

## [2H]C([2H])(c1cc(Cl)ccc1N)N1CCN(C(=O)CNC(=O)C2CC23CCC(F)(F)CC3)CC1 (racemic)
Ebolavirus [3]; vero c1008
  IC50: 0.094 µM

## Nc1ccc(C2CC2)cc1CN1CCN(C(=O)CNC(=O)C2CC23CCC(F)(F)CC3)CC1 (racemic)
Ebolavirus [3]; Orthoebolavirus, Vero C1008
  IC50: 4.2 µM

## Nc1ccc(Cl)cc1C(=O)N1CCN(C(=O)CNC(=O)C2CC23CCC(F)(F)CC3)CC1 (racemic)
Ebolavirus [3]; Orthoebolavirus, Vero C1008
  IC50: > 5 µM

## [2H]C([2H])(c1cc(Cl)ccc1N)N1CCN(C(=O)CNC(=O)C2CC23CCC(F)(F)CC3)CC1 (single isomer, unassigned; (-))
[8]
  remaining at 4 h, 10 µM: 88%
[1]
  half-life at 1 µM: 3 min
[9]
  half-life at 1 µM: 1.52 h
[2]
  half-life at 1 µM: 0.267 h
[16]
  Tmax: 1.7 h
[17]
  Cmax: 19.5 µM
[18]
  concentration: 2 µM
[19]
  AUC(0-t): 121 µM·h
[20]
  half-life: 3.2 h
[21]
  CL/F: 15.5 mL/min/kg
Ebolavirus [3]; vero c1008
  IC50: 0.051 µM
Ebolavirus [4]; Orthoebolavirus, Vero C1008
  IC50: 0.163 µM
physchem
  solubility kinetic: 78 µM (≈ 35.6 µg/mL)
In vitro
  fraction unbound at 6 h: 0.121

## [2H]C([2H])(c1cc(Cl)ccc1NCc1ccc(S(C)(=O)=O)cc1)N1CCN(C(=O)CNC(=O)C2CC23CCC(F)(F)CC3)CC1 (single isomer, unassigned; (-))
[8]
  remaining at 4 h, 10 µM: 72%
[1]
  half-life at 1 µM: 2 min
[9]
  half-life at 1 µM: 1.45 h
[2]
  half-life at 1 µM: 0.0167 h
[16]
  Tmax: 7.3 h
[17]
  Cmax: 7.4 µM
[18]
  concentration: 5.7 µM
[19]
  AUC(0-t): 108 µM·h
[20]
  half-life: 1.7 h
[21]
  CL/F: 12.5 mL/min/kg
Ebolavirus [22]
  IC50: 0.109 µM
Ebolavirus [4]; Orthoebolavirus, Vero C1008
  IC50: 0.021 µM
physchem
  solubility kinetic: 4 µM (≈ 2.5 µg/mL)
In vitro
  fraction unbound at 6 h: 0.002

## [2H]C([2H])(c1cc(Cl)ccc1N)N1CCN(C(=O)CNC(=O)C2CC23CCC(F)(F)CC3)CC1 (stereo in doubt; 3-19)
Ebolavirus [3]; vero c1008
  IC50: 0.18 µM

## CS(=O)(=O)c1ccc(COc2ccc(Cl)cc2CN2CCN(C(=O)CNC(=O)C3CC34CCC(F)(F)CC4)CC2)cc1 (stereo in doubt; 3-22)
[8]
  remaining at 4 h, 10 µM: 69%
[9]
  half-life at 1 µM: > 2 h
[16]
  Tmax: 4 h
[17]
  Cmax: 10.4 µM
[18]
  concentration: 4.7 µM
[19]
  AUC(0-t): 116 µM·h
[20]
  half-life: 3.2 h
[21]
  CL/F: 11.9 mL/min/kg
Ebolavirus [22]
  IC50: 0.093 µM
Ebolavirus [4]; vero c1008
  IC50: 0.019 µM
physchem
  solubility kinetic: 10 µM (≈ 6.24 µg/mL)
In vitro
  fraction unbound at 6 h: 0.024
